Experimental data: patent publication US20230293801A1, “Flow Electroporator Device For Therapeutic Targeting Of Circulating Tumor Cells During Hemodialysis” (ROSEMAN UNIVERSITY OF HEALTH SCIENCES, priority 2022, published 2023)

Legend:
Type in all cases: cell-based
[1] = tested on: HeLa cells; assay: Cell viability by crystal violet staining after incubation with blood plasma and A922500; conditions: blood plasma and A922500, versus blood plasma alone for 24 hrs
Description: (§1) FIGS. 7A-H show A922500, a DGAT1 inhibitor, reduces the viability of CTCs in blood plasma. […] Cell viability is assayed with crystal violet staining and visualized at low resolution (left column) and high resolution (right column). […] Error bars are standard deviation of triplicate experiments. Asterisk indicates p-value≤0.01 versus culturing in EMEM medium. […] Control HeLa cells cultured in EMEM medium is presented in the top panel. HeLa cells incubated with blood plasma for 24 hrs is presented in the bottom panel. […] Images are control untreated HeLa cells cultured with EMEM medium (first panel); HeLa cells cultured in EMEM medium and treated with 10 μM A922500, a small-molecule inhibitor of diacylglycerol O-acyltransferase 1 (DGAT1), for 24 hrs (second panel); HeLa cells incubated with blood plasma for 24 hrs (third panel); and HeLa cells incubated with blood plasma and 10 μM A922500 for 24 hrs (fourth panel). FIGS. 7F-H show viability of HeLa cells following incubation with blood plasma or blood plasma and A922500. Cell viability is assayed with crystal violet staining and visualized at low resolution (FIG. 7F) and high resolution (FIG. 7G). […] Error bars are standard deviation of triplicate experiments. Single asterisk indicates p-value≤0.01 versus untreated control HeLa cells cultured with EMEM. […]

[2] = tested on: HeLa cells; assay: Confocal fluorescence imaging of intracellular lipid droplets in cells incubated with blood plasma; conditions: blood plasma and 10 μM A922500 for 24 hrs
Description: as §1

[3] = tested on: HeLa cells; assay: Doxorubicin uptake by flow cytometry of doxorubicin fluorescence, with and without the flow electroporator device; conditions: HeLa cells in EMEM, 40 nM doxorubicin, 500 ml/min, 300 V/cm, 200 V/cm, normalized to no electroporation
Description: (§2) FIGS. 6A-G show drug delivery via electroporation. […] Cell cycle analysis is performed using flow cytometry and propidium iodide staining of chromosomal DNA. […] Error bars are standard deviation of triplicate experiments. Asterisk indicates p-value≤0.01 versus untreated control. FIGS. 6D-G show increased delivery of doxorubicin into HeLa cells via electroporation. […] Data are normalized to 1 for doxorubicin fluorescence of HeLa cells incubated with 40 nM doxorubicin without electroporation. Error bars are standard deviation of triplicate experiments. Asterisk indicates p-value≤0.01 versus no electroporation.
(§3) Another utility of the flow electroporator device is drug delivery during hemodialysis. Due to the unique cancer hallmarks of CTCs, many chemotherapeutic agents can be used for their selective targeting. […] Electroporation by the flow electroporator device enhanced doxorubicin uptake by CTCs by more than 4 fold (FIG. 6D-G). An advantage of drug delivery during hemodialysis is the subsequent removal of excess chemotherapeutic agents, thereby minimizing unnecessary side effects to cancer patients.

[4] = tested on: HeLa cells; assay: Cell cycle analysis by flow cytometry and propidium iodide staining of chromosomal DNA; conditions: HeLa cells as mocked CTCs, 40 nM doxorubicin for 24 hrs
Description: as §2, §3

O=C(Nc1ccccc1)Nc1ccc(-c2ccc(C(=O)[C@@H]3CCC[C@H]3C(=O)O)cc2)cc1 [A922500]
viability of CTCs in blood plasma [1]: further reduced the viability
lipid droplet accumulation in CTCs incubated with blood plasma [2]: inhibited lipid droplet accumulation

COc1cccc2c1C(=O)c1c(O)c3c(c(O)c1C2=O)C[C@@](O)(C(=O)CO)C[C@@H]3O[C@H]1C[C@H](N)[C@H](O)[C@H](C)O1 [doxorubicin]
enhancement of doxorubicin uptake by CTCs by electroporation [3]: more than 4 fold
effect on cell cycle of CTCs [4]: cell cycle arrest
